# Measured values reported in publication PMC4772543, “Immune responses to Mycobacterial heat shock protein 70 accompany self-reactivity to human BiP in rheumatoid arthritis” (Scientific Reports, 2016).
# Test system: splenic CD4+ T cells from CIA-induced DBA/1 J mice
# Test: Splenic CD4+ T cell recall culture from CIA mice after oral peptide (proliferation, cytokine ELISA)
# Type: cell-based, mouse
# Protocol: (A,B) The MycHSP70_287–306 peptide or control (PBS alone) was orally administered to bovine type II collagen-immunized DBA/1 J mice after the occurrence of CIA for 5 continuous days (n = 12). Mice were sacrificed on day 35. Arthritis scores were measured by finger and paw swelling, and histological scores were measured by cell infiltration (C), pannus formation (P), and bone destruction (B). (C) Splenic CD4^+ T cell proliferation from CIA-induced DBA/1 J mice in response to a recall antigen (Ag) stimulation (MycHSP70_287–306 and BiP336–355 epitopes, and heat-denatured bovine type II collagen (BC II)). Proliferation was determined by[3]-H thymidine incorporation. (D) Serum anti-BiP and anti-BC II antibody titers were measured by ELISA. (E,F) Mouse IL-10 and TGF-beta1 concentrations in the splenic CD4^+ T cell culture were measured by ELISA.
# HLA-DR4 transgenic mice were obtained from Taconic, immunized twice (day 0, 14) with 100 μg of MycHSP70 with the same volume of complete Freund’s adjuvant subcutaneously into the tails, and sacrificed on day 21. MACS-purified CD4^+ T cells (1 × 10^5/mL) were cultured with irradiated splenocytes (1 × 10^6/mL) and an antigen (10 μg/mL) in RPMI 1640 medium supplemented with 5% FCS, 2 mM L-glutamine, 100 U/ml penicillin, 100 μg/ml streptomycin, and 5 × 10^−5 M 2-mercaptoethanol in a humidified incubator at 37 °C, 5% CO2, for 72 h. ^3H-thymidine was pulsed to each well, cells were harvested after an 18-hour incubation, and analyzed with a scintillation counter.
# CIA in the background of DBA/1 J female mice (SLC Japan) was performed and arthritis scores were acquired as previously described. In the therapeutic experiments, mice were administered 200 μg of MycHSP287–306 peptides orally for 5 continuous days following the onset of arthritis. Mice were sacrificed on day 35, and the CD4^+ T cell culture was performed as described above. Mouse cytokine concentrations in the supernatants were measured using a mouse IL-10 ELISA kit and mouse/human TGF-beta 1 ELISA kit (eBioscience) according to the manufacturer’s protocol. Tissue samples were embedded in paraffin wax after 10% formaldehyde fixation and decalcification. Sections were stained with hematoxylin and eosin. Synovial tissues were graded by mononuclear cell infiltration, pannus formation, and cartilage erosion, as described previously. All animal experiments were conducted in accordance with Institutional and National Guidelines, and the protocols were approved by the Ethical Committee on Animal Experiments of the University of Tokyo. […]
# The experimental protocol was the same as Figure 6.
# (A)(B)Mouse IL-17 and IFN-gamma concentrations in the splenic CD4+ T cell
# culture was measured by ELISA (Mouse cytokine ELISA ready-set-go,
# eBioscience) according to the manufacture’s protocol. […]
# [1] = MycHSP70_287–306 and BiP336–355 recall stimulations, peptide-treated mice, ELISA
# [2] = mice given MycHSP70_287–306 orally vs PBS, 3H-thymidine
sequence,measurement,setting,value
DRTRKPFQSVIADTGISVSE [MycHSP70_287–306],secretion of IL-10 from CD4+ T cells,[1],induced
same,secretion of TGF-β1 from CD4+ T cells,[1],induced
same,proliferation of CD4+ T cells in response to BiP336–355 recall,[2],reduced
same,proliferation of CD4+ T cells in response to MycHSP70_287–306 recall,[2],reduced
same,bovine type II collagen-specific T cell proliferation,"mice given MycHSP70_287–306 orally vs PBS, heat-denatured BC II recall",suppressed
same,pro-inflammatory cytokine secretion from CD4+ T cells,"mouse IL-17 and IFN-gamma by ELISA, mice given peptide orally vs PBS (Supplementary Figure S2)",suppressed
